Literature values in patent US20190160002A1, “PROCESS FOR PREPARING STERILE ARIPIPRAZOLE FORMULATION” (Mylan Laboratories Ltd., priority 2016, published 2019).

## O=C1CCc2ccc(OCCCCN3CCN(c4cccc(Cl)c4Cl)CC3)cc2N1 [aripiprazole monohydrate]
Dry heat sterilization
  Effect of dry heat sterilization: melted
gamma-ray and electron beam
  Effect of gamma-ray and electron beam sterilization: discolored and decomposed
Particles in aqueous suspension, steam heat sterilization
  Effect of steam heat sterilization on particles: tend to agglomerate
